Values of other authors in patent US8841262B2, “Agent for inhibiting peritoneal membrane thickening” (CCI Corporation, priority 2009, dated 2014).

Key:
[1] = system: vascular endothelial growth factor (VEGF); conditions: administration of TNP-470, reported in Non-Patent Literature 1
[2] = system: peritoneal membrane thickening; conditions: ganciclovir infused into the abdominal cavity, in 2 weeks; reported in Non-Patent Literature 3

SMILES	myofibroblastic cell proliferation [1]	neoangiogenesis [1]	peritoneal membrane thickening after chlorhexidine [2]
CO[C@@H]1[C@H](OC(=O)NC(=O)CCl)CC[C@]2(CO2)[C@H]1[C@@]1(C)O[C@@H]1CC=C(C)C [TNP-470]	suppression	inhibition	
Nc1nc(O)c2ncn(COC(CO)CO)c2n1 [ganciclovir]			alleviated
